Measured values as given in ChEMBL document CHEMBL6134796, “Development and Evaluation of Indole-Based Phospholipase D Inhibitors for Lung Cancer Immunotherapy” (J Med Chem, 2025).
pIC50: −log10 of the molar value.

Legend:
HCT-116 [1] = assay: Residual PLD activity in human HCT-116 cells at 10 uM measured after 1 hr by amplex red phospholipase D assay as % of control
A549 = assay: Cytotoxicity against human A549 cells assessed as inhibition of cell growth incubated for 48 hrs by WST-1 assay; assay type: functional, cell-based; conditions: A549, 48 h
[2] = Inhibition of PLD in human A549 cells measured after 1 hr by amplex red phospholipase D assay; assay type: cell-based
HCT-116 [3] = assay: Cytotoxicity against human HCT-116 cells assessed as inhibition of cell growth incubated for 48 hrs by WST-1 assay; assay type: functional, cell-based; conditions: HCT-116, 48 h

**Q.** For `C[C@@H](CN1CCC(n2c(=O)[nH]c3cc(Cl)ccc32)CC1)NC(=O)c1ccc2ccccc2c1`, which level, % of control (HCT-116 [1]) is on record?
**A.** 30.4%

**Q.** Which level, % of control (HCT-116 [1]) does the source give for `O=C(Nc1ccc(O)c(O)c1)c1c[nH]c2ccccc12` here?
**A.** 51.1%

**Q.** Which level, % of control (HCT-116 [1]) does the source give for `O=C(Nc1cccc(C(F)(F)F)c1)c1cc2cc(F)ccc2[nH]1` here?
**A.** 47.6%

**Q.** With `O=C(Oc1cc(C(F)(F)F)cc(C(F)(F)F)c1)c1cc2cc(F)ccc2[nH]1` as the molecule, how does the pIC50 (A549) read?
**A.** 4.30

**Q.** And the pIC50 [2]?
**A.** 5.51

**Q.** What about the pIC50 (HCT-116 [3]) of the same molecule?
**A.** < 4.30

**Q.** What about the level, % of control (HCT-116 [1]) of the same molecule?
**A.** 33.4%

**Q.** With `O=C(Nc1ccc(O)c(O)c1)c1cc2cc(F)ccc2[nH]1` as the molecule, how does the pIC50 (A549) read?
**A.** < 3.70

**Q.** What about the pIC50 [2] of the same molecule?
**A.** 5.37

**Q.** What about the pIC50 (HCT-116 [3]) of the same molecule?
**A.** < 4.30

**Q.** For `COc1ccc(NC(=O)c2cc3cc(F)ccc3[nH]2)cc1OC`, which level, % of control (HCT-116 [1]) is on record?
**A.** 52.2%

**Q.** For `O=C(Cc1c[nH]c2ccccc12)Nc1ccc(O)c(O)c1`, which level, % of control (HCT-116 [1]) is on record?
**A.** 54.4%

**Q.** With `O=C(Nc1ccc(F)cc1)c1cc2cc(F)ccc2[nH]1` as the molecule, how does the level, % of control (HCT-116 [1]) read?
**A.** 53.2%

**Q.** With `O=C(CCc1c[nH]c2ccccc12)Nc1cccc(F)c1` as the molecule, how does the level, % of control (HCT-116 [1]) read?
**A.** 50.6%

**Q.** For `O=C(Nc1cc(C(F)(F)F)cc(C(F)(F)F)c1)c1cc2cc(C(F)(F)F)ccc2[nH]1`, which level, % of control (HCT-116 [1]) is on record?
**A.** 45.8%

**Q.** For `COc1ccc(CNC(=O)c2cc3cc(F)ccc3[nH]2)cc1OC`, which level, % of control (HCT-116 [1]) is on record?
**A.** 48%

**Q.** For `O=C(CCCc1c[nH]c2ccccc12)Nc1cc(C(F)(F)F)cc(C(F)(F)F)c1`, which level, % of control (HCT-116 [1]) is on record?
**A.** 55.5%

**Q.** For `O=C(Nc1cc(F)cc(F)c1)c1cc2cc(F)ccc2[nH]1`, which level, % of control (HCT-116 [1]) is on record?
**A.** 51.1%

**Q.** Which level, % of control (HCT-116 [1]) does the source give for `O=C(Cc1c[nH]c2ccccc12)Nc1cc(C(F)(F)F)cc(C(F)(F)F)c1` here?
**A.** 53%
